Assay results taken from patent US20100144722A1, “NOVEL HETEROCYCLIC COMPOUNDS AS GATA MODULATORS” (Dr. Reddy's Laboratories Ltd., priority 2008, published 2010).

System: GATA1
Assay: GATA Assay (GATA luciferase reporter in transfected HepG2 cells)
Format: cell-based, Human
Settings: HepG2 cells transfected with GATA Translucent Reporter Vector, luciferase normalized to total protein
Description: Human HepG2 (ATCC) cells were grown in Eagle's Minimum Essential Media (MEM) containing 10% heat inactivated Fetal Bovine Serum (FBS) (Invitrogen) and 5 mL Penicillin-Streptomycin (Invitrogen) in T75 flasks (Corning) in a 37° C./5% CO2 tissue culture incubator (Thermo Electron Corporation) prior to the study. 96-well plates (Corning) were seeded in MEM containing 10% FBS to yield ˜50% confluency. The following day, cells were transfected using FuGENE 6 transfection reagent (Roche) and […] GATA Translucent Reporter Vector (Panomics) according the manufacturer's (Roche) protocol and incubated for about 10-19 h. The next day, the cells were treated with equal volumes of vehicle, dimethyl sulfoxide (DMSO) (Hybri-Max Sterile Filtered Sigma Aldrich) or compounds of formula (I) (in DMSO) diluted in MEM containing 1% FBS. The treated cells were incubated about 8-19 h. The next day the treatment media was removed and the cells were lysed and assayed for luciferase activity using the luciferase assay system (Promega) and using the Envision plate reader (Perkin Elmer). The lysates were also used to measure total protein content with the MicroBCA protein assay kit (Pierce) using the Multiskan Ascent plate reader at 570 nm. Luciferase values were normalized to total protein and fold induction was calculated.
Compounds that show an increase of ≧40% in luciferase levels at ≦20 μm concentration were considered as GATA activators.

Structure (SMILES): O=C(O)C1(c2ccc(Nc3nc(NC4CCCC4)cc(-c4ccccc4)n3)cc2)CCC1 [Example 16, 1-[4-(4-cyclopentylamino-6-phenyl-pyrimidin-2-ylamino)-phenyl]-cyclobutane-carboxylic acid]
- GATA1 Activation (Fold Change Vs Control) (5μ compound): 2.44 Fold
- GATA1 Activation (Fold Change Vs Control) (10μ compound): 2.13 Fold

Structure (SMILES): O=C(O)C1(c2ccc(Nc3nc(NC4CCCC4)cc(C4CCCC4)n3)cc2)CCC1 [Example 25, 1-[4-(4-cyclopentyl-6-cyclopentylamino-pyrimidin-2-ylamino)-phenyl]-cyclobutanecarboxylic acid]
- GATA1 Activation (Fold Change Vs Control) (5μ compound): 3.69 Fold
- GATA1 Activation (Fold Change Vs Control) (10μ compound): 3.32 Fold

Structure (SMILES): Cc1noc(C)c1-c1cc(N2CCOCC2)nc(Nc2ccc(C3(C(=O)O)CCC3)cc2)n1 [Example 30, 1-{4-[4-(3,5-dimethyl-isoxazol-4-yl)-6-morpholin-4-yl-pyrimidin-2-ylamino]-phenyl}-cyclobutanecarboxylic acid]
- GATA1 Activation (Fold Change Vs Control) (5μ compound): 1.64 Fold
- GATA1 Activation (Fold Change Vs Control) (10μ compound): 1.74 Fold

Structure (SMILES): CC(C)(C)Nc1nc(Nc2ccc(C3(C(=O)O)CCC3)cc2)cc(-c2ccccc2)n1 [Example 55, 1-[4-(2-tert-butylamino-6-phenyl-pyrimidin-4-ylamino)-phenyl]-cyclobutane-carboxylic acid]
- GATA1 Activation (Fold Change Vs Control) (5μ compound): 2.86 Fold
- GATA1 Activation (Fold Change Vs Control) (10μ compound): 2.40 Fold

Structure (SMILES): CC(C)Oc1cc(-c2ccccc2)nc(Nc2ccc(C3(C(=O)O)CCC3)cc2)n1 [Example 68, 1-[4-(4-isopropoxy-6-phenyl-pyrimidin-2-ylamino)-phenyl]-cyclobutane-carboxylic acid]
- GATA1 Activation (Fold Change Vs Control) (5μ compound): 2.57 Fold
- GATA1 Activation (Fold Change Vs Control) (10μ compound): 2.44 Fold
